Results published in PubChem BioAssay AID2060884 (Molecular Pharmacology Branch, DTP, NCI, 2025).

Test system: NCI-H929 complex spheroids, viability % test/control
Assay: Anticancer human tumor NCI-H929 cell line growth inhibition [RAS];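 further: compound exposure lasted seven days before viability was read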;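 on viability, T/C: 100% = DMSO vehicle control viability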
Settings: for IC50: curve of first compound; for viability, T/C: stronger effect = lower value
Outline: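 Multi-cell-type spheroids: tumor cells plus HUVEC endothelial cells and mesenchymal stem cells. RAS-pathway inhibitors were combined with targeted agents, each dosed in half-log steps down from clinical Cmax, or from 10 microM when Cmax was unknown.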

## O=C(c1ccc(F)c(F)c1Nc1ccc(I)cc1F)N1CC(O)([C@@H]2CCCCN2)C1 + C#Cc1c(F)ccc2cc(O)cc(-c3ncc4c(N5CC6CCC(C5)N6)nc(OCC56CCCN5CC(F)C6)nc4c3F)c12
Second compound 0.0316 µM
  IC50: > 1 µM
Second compound 0.1 µM
  IC50: > 1 µM
Second compound 0.316 µM
  IC50: > 1 µM
Second compound 1 µM
  IC50: > 1 µM
Second compound 3.16 µM
  IC50: 0.822 µM
Second compound 10 µM
  IC50: 0.614 µM
Second compound 0.0316 µM, first compound 0.00316 µM
  viability, T/C: 83.7%
Second compound 0.0316 µM, first compound 0.01 µM
  viability, T/C: 91.4%
Second compound 0.0316 µM, first compound 0.0316 µM
  viability, T/C: 84.5%
Second compound 0.0316 µM, first compound 0.1 µM
  viability, T/C: 91.7%
Second compound 0.0316 µM, first compound 0.316 µM
  viability, T/C: 113%
Second compound 0.0316 µM, first compound 1 µM
  viability, T/C: 60.2%
Second compound 0.1 µM, first compound 0.00316 µM
  viability, T/C: 96.5%
Second compound 0.1 µM, first compound 0.01 µM
  viability, T/C: 91.3%
Second compound 0.1 µM, first compound 0.0316 µM
  viability, T/C: 84.4%
Second compound 0.1 µM, first compound 0.1 µM
  viability, T/C: 98.7%
Second compound 0.1 µM, first compound 0.316 µM
  viability, T/C: 114%
Second compound 0.1 µM, first compound 1 µM
  viability, T/C: 60%
Second compound 0.316 µM, first compound 0.00316 µM
  viability, T/C: 95%
Second compound 0.316 µM, first compound 0.01 µM
  viability, T/C: 91%
Second compound 0.316 µM, first compound 0.0316 µM
  viability, T/C: 82.3%
Second compound 0.316 µM, first compound 0.1 µM
  viability, T/C: 95%
Second compound 0.316 µM, first compound 0.316 µM
  viability, T/C: 115%
Second compound 0.316 µM, first compound 1 µM
  viability, T/C: 54%
Second compound 1 µM, first compound 0.00316 µM
  viability, T/C: 90.8%
Second compound 1 µM, first compound 0.01 µM
  viability, T/C: 92.7%
Second compound 1 µM, first compound 0.0316 µM
  viability, T/C: 85.4%
Second compound 1 µM, first compound 0.1 µM
  viability, T/C: 93.5%
Second compound 1 µM, first compound 0.316 µM
  viability, T/C: 116%
Second compound 1 µM, first compound 1 µM
  viability, T/C: 50.6%
Second compound 3.16 µM, first compound 0.00316 µM
  viability, T/C: 90.2%
Second compound 3.16 µM, first compound 0.01 µM
  viability, T/C: 91.2%
Second compound 3.16 µM, first compound 0.0316 µM
  viability, T/C: 81%
Second compound 3.16 µM, first compound 0.1 µM
  viability, T/C: 94.5%
Second compound 3.16 µM, first compound 0.316 µM
  viability, T/C: 118%
Second compound 3.16 µM, first compound 1 µM
  viability, T/C: 40.7%
Second compound 10 µM, first compound 0.00316 µM
  viability, T/C: 94%
Second compound 10 µM, first compound 0.01 µM
  viability, T/C: 94.1%
Second compound 10 µM, first compound 0.0316 µM
  viability, T/C: 90.2%
Second compound 10 µM, first compound 0.1 µM
  viability, T/C: 95.4%
Second compound 10 µM, first compound 0.316 µM
  viability, T/C: 115%
Second compound 10 µM, first compound 1 µM
  viability, T/C: 14.8%

## NC1c2ccccc2OC12CCN(c1cnc3c(N4CCCc5ncccc54)n[nH]c3n1)CC2 (centres undefined) + CCn1c(-c2cccnc2C(C)OC)c2c3cc(ccc31)N1CCOC(CC(NC(=O)C(C(C)C)N(C)C(=O)C3(F)CCN(C(=O)C#CC(C)(C)N(C)C)CC3)C(=O)N3CCCC(N3)C(=O)OCC(C)(C)C2)C1
Second compound 0.000949 µM
  IC50: > 10 µM
Second compound 0.003 µM
  IC50: > 10 µM
Second compound 0.00949 µM
  IC50: > 10 µM
Second compound 0.03 µM
  IC50: > 10 µM
Second compound 0.0949 µM
  IC50: 9.05 µM
Second compound 0.3 µM
  IC50: 8.98 µM
Second compound 0.000949 µM, first compound 0.0316 µM
  viability, T/C: 103%
Second compound 0.000949 µM, first compound 0.1 µM
  viability, T/C: 100%
Second compound 0.000949 µM, first compound 0.316 µM
  viability, T/C: 103%
Second compound 0.000949 µM, first compound 1 µM
  viability, T/C: 98.5%
Second compound 0.000949 µM, first compound 3.16 µM
  viability, T/C: 94.5%
Second compound 0.000949 µM, first compound 10 µM
  viability, T/C: 60.7%
Second compound 0.003 µM, first compound 0.0316 µM
  viability, T/C: 103%
Second compound 0.003 µM, first compound 0.1 µM
  viability, T/C: 96.5%
Second compound 0.003 µM, first compound 0.316 µM
  viability, T/C: 102%
Second compound 0.003 µM, first compound 1 µM
  viability, T/C: 97.7%
Second compound 0.003 µM, first compound 3.16 µM
  viability, T/C: 95.7%
Second compound 0.003 µM, first compound 10 µM
  viability, T/C: 58.5%
Second compound 0.00949 µM, first compound 0.0316 µM
  viability, T/C: 101%
Second compound 0.00949 µM, first compound 0.1 µM
  viability, T/C: 99.6%
Second compound 0.00949 µM, first compound 0.316 µM
  viability, T/C: 101%
Second compound 0.00949 µM, first compound 1 µM
  viability, T/C: 96.8%
Second compound 0.00949 µM, first compound 3.16 µM
  viability, T/C: 93.2%
Second compound 0.00949 µM, first compound 10 µM
  viability, T/C: 54.1%
Second compound 0.03 µM, first compound 0.0316 µM
  viability, T/C: 97.7%
Second compound 0.03 µM, first compound 0.1 µM
  viability, T/C: 96.9%
Second compound 0.03 µM, first compound 0.316 µM
  viability, T/C: 99.8%
Second compound 0.03 µM, first compound 1 µM
  viability, T/C: 99.7%
Second compound 0.03 µM, first compound 3.16 µM
  viability, T/C: 90.9%
Second compound 0.03 µM, first compound 10 µM
  viability, T/C: 54.2%
Second compound 0.0949 µM, first compound 0.0316 µM
  viability, T/C: 99.1%
Second compound 0.0949 µM, first compound 0.1 µM
  viability, T/C: 98.2%
Second compound 0.0949 µM, first compound 0.316 µM
  viability, T/C: 93.6%
Second compound 0.0949 µM, first compound 1 µM
  viability, T/C: 91.2%
Second compound 0.0949 µM, first compound 3.16 µM
  viability, T/C: 86.5%
Second compound 0.0949 µM, first compound 10 µM
  viability, T/C: 46.3%
Second compound 0.3 µM, first compound 0.0316 µM
  viability, T/C: 95.7%
Second compound 0.3 µM, first compound 0.1 µM
  viability, T/C: 99.6%
Second compound 0.3 µM, first compound 0.316 µM
  viability, T/C: 99.5%
Second compound 0.3 µM, first compound 1 µM
  viability, T/C: 93.2%
Second compound 0.3 µM, first compound 3.16 µM
  viability, T/C: 76.8%
Second compound 0.3 µM, first compound 10 µM
  viability, T/C: 47.2%
